Laboratory results as given in ChEMBL document CHEMBL5518236, “Discovery of Clinical Candidate AZD5462, a Selective Oral Allosteric RXFP1 Agonist for Treatment of Heart Failure” (J Med Chem, 2024).

How the values were obtained:
[1] = biological target: T1, Relaxin receptor 1 (Homo sapiens, UniProt Q9HBX9); experiment: Agonist activity at human RXFP1 expressed in HEK293 cells assessed as cAMP production measured after 15 mins by BRET sensor assay
T1 sequence (Q9HBX9 whole entry): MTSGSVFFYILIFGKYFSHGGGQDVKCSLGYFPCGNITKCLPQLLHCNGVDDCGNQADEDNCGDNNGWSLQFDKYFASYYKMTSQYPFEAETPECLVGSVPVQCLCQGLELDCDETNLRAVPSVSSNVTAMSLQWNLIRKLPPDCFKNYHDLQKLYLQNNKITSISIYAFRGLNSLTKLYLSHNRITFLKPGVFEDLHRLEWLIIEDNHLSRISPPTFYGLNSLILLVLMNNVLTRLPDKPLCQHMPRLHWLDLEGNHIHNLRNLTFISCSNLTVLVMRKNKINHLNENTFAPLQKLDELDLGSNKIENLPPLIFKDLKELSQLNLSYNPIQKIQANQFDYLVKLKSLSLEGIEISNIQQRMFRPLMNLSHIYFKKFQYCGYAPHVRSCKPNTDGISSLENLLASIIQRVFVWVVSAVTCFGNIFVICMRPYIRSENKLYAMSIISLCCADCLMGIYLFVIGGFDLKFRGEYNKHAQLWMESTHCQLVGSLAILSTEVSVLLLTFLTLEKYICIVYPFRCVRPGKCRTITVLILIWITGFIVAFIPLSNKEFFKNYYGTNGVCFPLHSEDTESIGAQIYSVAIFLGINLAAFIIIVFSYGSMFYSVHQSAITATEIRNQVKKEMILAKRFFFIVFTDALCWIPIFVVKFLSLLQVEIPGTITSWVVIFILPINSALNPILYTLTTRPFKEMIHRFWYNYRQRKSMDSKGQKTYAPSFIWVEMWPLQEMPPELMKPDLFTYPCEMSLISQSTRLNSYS

[2] = Octanol/water partition coefficient, logD of the compound at pH 7.4 by shake flask method; type: physicochemical
[3] = biological target: T1, Relaxin receptor 1; experiment: Agonist activity at human RXFP1 expressed in HEK293 cells coexpressing GRK2 assessed as beta-arrestin internalization by BRET assay relative to control
[4] = biological target: T1, Relaxin receptor 1; experiment: Agonist activity at human RXFP1 expressed in HEK293 cells co-expressing G-alphas assessed as cAMP production measured after 15 mins by BRET sensor assay
[5] = Metabolic stability in human liver microsomes assessed as unbound intrinsic clearance at 1 uM measured upto 30 mins by LC-MS/MS analysis; type: ADME, Microsome; conditions: 0.5 h
[6] = biological target: T1, Relaxin receptor 1; experiment: Agonist activity at human RXFP1 expressed in CHO-K1 cells assessed as dynamic mass redistribution (DMR) measured after 60 mins pretreated with UBO-QIC by G-protein coupling DMR assay
[7] = Protein binding in human plasma assessed as fraction unbound at 5 uM measured after 18 hrs by LC-MS/MS analysis; type: ADME, cell-free; conditions: read-out: PPB
[8] = biological target: T1, Relaxin receptor 1; experiment: Agonist activity at human RXFP1 expressed in HEK293 cells assessed as ERK phosphorylation measured after 24 hrs by HTRF assay
[9] = Metabolic stability in human liver microsomes assessed as intrinsic clearance at 1 uM measured upto 30 mins by LC-MS/MS analysis; type: ADME, Microsome; conditions: read-out: CLH
[10] = biological target: T1, Relaxin receptor 1; experiment: Agonist activity at human RXFP1 expressed in CHO-K1 cells assessed as dynamic mass redistribution (DMR) measured after 60 mins pretreated with PTX by G-protein coupling DMR assay
[11] = biological target: T1, Relaxin receptor 1; experiment: Agonist activity at human RXFP1 expressed in HEK293 cells co-expressing G-alphaz assessed as cAMP production measured after 15 mins by BRET sensor assay
[12] = Metabolic stability in human hepatocytes assessed as unbound intrinsic clearance measured per 10^6 viable cells/ml at 1 uM measured upto 120 mins by LC-MS/MS analysis; type: ADME, cell-based, Hepatocyte; conditions: 2 h
[13] = Metabolic stability in human hepatocytes assessed as intrinsic clearance measured per 10^6 viable cells/ml at 1 uM measured upto 120 mins by LC-MS/MS analysis; type: ADME, cell-based, Hepatocyte; conditions: read-out: CLH
[14] = biological target: T1, Relaxin receptor 1; experiment: Agonist activity at human RXFP1 expressed in CHO-K1 cells assessed as dynamic mass redistribution (DMR) measured after 60 mins by G-protein coupling DMR assay
[15] = Clearance in Han Wistar rat at 0.90 micromol/kg, iv by LC-MS/MS analysis; type: ADME, organism-based; conditions: in vivo, dose 0.9 µmol/kg
[16] = Half life in Han Wistar rat at 0.90 micromol/kg, iv by LC-MS/MS analysis; type: ADME, organism-based; conditions: in vivo, dose 0.9 µmol/kg
[17] = biological target: T2, Relaxin receptor 1 (Rattus norvegicus, UniProt Q6R6I6); experiment: Agonist activity at rat RXFP1 expressed in CHO-K1 cells assessed as increase in cAMP level measured after 2 hrs by HTRF cAMP assay; type: functional, cell-based
T2 sequence (Q6R6I6 whole entry): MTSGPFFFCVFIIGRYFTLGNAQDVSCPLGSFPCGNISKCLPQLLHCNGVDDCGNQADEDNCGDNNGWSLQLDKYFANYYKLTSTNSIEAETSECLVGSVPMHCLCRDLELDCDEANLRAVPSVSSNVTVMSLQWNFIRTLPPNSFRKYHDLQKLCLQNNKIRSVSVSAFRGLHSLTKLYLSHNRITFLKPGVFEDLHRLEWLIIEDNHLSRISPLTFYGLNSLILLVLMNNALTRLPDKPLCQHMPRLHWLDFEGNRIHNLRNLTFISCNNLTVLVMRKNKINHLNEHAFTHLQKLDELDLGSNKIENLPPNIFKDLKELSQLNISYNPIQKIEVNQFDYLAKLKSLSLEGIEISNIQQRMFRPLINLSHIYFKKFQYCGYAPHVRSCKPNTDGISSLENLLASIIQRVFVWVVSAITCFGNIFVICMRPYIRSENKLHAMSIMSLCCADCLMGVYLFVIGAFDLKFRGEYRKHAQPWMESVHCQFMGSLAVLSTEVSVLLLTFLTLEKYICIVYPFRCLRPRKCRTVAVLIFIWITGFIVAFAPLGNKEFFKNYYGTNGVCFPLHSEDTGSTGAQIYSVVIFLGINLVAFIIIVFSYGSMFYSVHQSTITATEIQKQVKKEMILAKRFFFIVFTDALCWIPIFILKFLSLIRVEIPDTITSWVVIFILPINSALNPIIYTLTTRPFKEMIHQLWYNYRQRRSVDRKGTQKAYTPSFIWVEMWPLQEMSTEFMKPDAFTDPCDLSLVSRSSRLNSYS

[18] = Oral bioavailability in Han Wistar rat at 1.8 micromol/kg by LC-MS/MS analysis; type: ADME, organism-based; conditions: in vivo, 1.8 µmol/kg
[19] = Volume of distribution at steady state in Han Wistar rat at 0.90 micromol/kg, iv by LC-MS/MS analysis; type: ADME, organism-based; conditions: in vivo, dose 0.9 µmol/kg, read-out: Vdss
[20] = Protein binding in rat plasma assessed as fraction unbound at 5 uM measured after 18 hrs by LC-MS/MS analysis; type: ADME, cell-free; conditions: read-out: PPB
[21] = Metabolic stability in rat hepatocytes assessed as unbound intrinsic clearance measured per 10^6 viable cells/ml at 1 uM measured upto 120 mins by LC-MS/MS analysis; type: ADME, cell-based, Hepatocyte; conditions: 2 h
[22] = Apparent permeability across apical to basolateral side in human Caco-2 cells at pH 7.4 by LC-MS/MS analysis; type: ADME, cell-based; conditions: Caco-2, pH 7.4
[23] = Efflux ratio of apparent permeability from basolateral side to apical side over apical side to basolateral side in human Caco-2 cells at pH 7.4 by LC-MS/MS analysis; conditions: Caco-2, pH 7.4
[24] = biological target: T1, Relaxin receptor 1
Description: Agonist activity at human RXFP1 expressed in CHO cells assessed as increase in cAMP level measured after 2 hrs by HTRF cAMP assay

[25] = biological target: T3, Relaxin receptor 1 (Mus musculus, UniProt Q6R6I7)
T3 sequence (Q6R6I7 whole entry): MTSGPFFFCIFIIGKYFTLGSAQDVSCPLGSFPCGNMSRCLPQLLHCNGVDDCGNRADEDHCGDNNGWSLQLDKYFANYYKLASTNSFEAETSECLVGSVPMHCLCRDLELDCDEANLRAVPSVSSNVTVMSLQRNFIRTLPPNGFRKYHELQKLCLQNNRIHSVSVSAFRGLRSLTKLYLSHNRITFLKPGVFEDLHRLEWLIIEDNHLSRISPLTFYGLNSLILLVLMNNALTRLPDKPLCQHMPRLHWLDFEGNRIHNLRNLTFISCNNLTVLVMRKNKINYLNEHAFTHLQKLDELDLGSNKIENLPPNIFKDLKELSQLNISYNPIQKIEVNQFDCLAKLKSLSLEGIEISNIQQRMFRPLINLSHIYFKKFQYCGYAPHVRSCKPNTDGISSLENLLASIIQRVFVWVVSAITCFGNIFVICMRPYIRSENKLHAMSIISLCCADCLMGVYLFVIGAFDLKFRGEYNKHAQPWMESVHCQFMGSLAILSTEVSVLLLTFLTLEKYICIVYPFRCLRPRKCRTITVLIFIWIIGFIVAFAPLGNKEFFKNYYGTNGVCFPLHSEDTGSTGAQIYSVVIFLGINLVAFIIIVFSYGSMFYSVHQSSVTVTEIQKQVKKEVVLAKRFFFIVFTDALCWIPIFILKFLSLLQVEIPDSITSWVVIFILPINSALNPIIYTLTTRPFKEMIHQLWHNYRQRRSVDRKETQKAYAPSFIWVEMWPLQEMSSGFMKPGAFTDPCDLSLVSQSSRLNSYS
Description: Agonist activity at mouse RXFP1 expressed in CHO-K1 cells assessed as increase in cAMP level measured after 2 hrs by HTRF cAMP assay

[26] = Clearance in Han Wistar rat at 0.96 micromol/kg, iv by LC-MS/MS analysis; type: ADME, organism-based; conditions: in vivo, dose 0.96 µmol/kg
[27] = Volume of distribution at steady state in Han Wistar rat at 0.96 micromol/kg, iv by LC-MS/MS analysis; type: ADME, organism-based; conditions: in vivo, dose 0.96 µmol/kg, read-out: Vdss
[28] = Oral bioavailability in Han Wistar rat at 1.9 micromol/kg by LC-MS/MS analysis; type: ADME, organism-based; conditions: in vivo, 1.9 µmol/kg
[29] = Half life in Han Wistar rat at 0.96 micromol/kg, iv by LC-MS/MS analysis; type: ADME, organism-based; conditions: in vivo, dose 0.96 µmol/kg
[30] = Half life in Han Wistar rat at 0.93 micromol/kg, iv by LC-MS/MS analysis; type: ADME, organism-based; conditions: in vivo, dose 0.93 µmol/kg
[31] = Oral bioavailability in Han Wistar rat at 9.3 micromol/kg by LC-MS/MS analysis; type: ADME, organism-based; conditions: in vivo, 9.3 µmol/kg
[32] = Clearance in Han Wistar rat at 0.93 micromol/kg, iv by LC-MS/MS analysis; type: ADME, organism-based; conditions: in vivo, dose 0.93 µmol/kg
[33] = Volume of distribution at steady state in Han Wistar rat at 0.93 micromol/kg, iv by LC-MS/MS analysis; type: ADME, organism-based; conditions: in vivo, dose 0.93 µmol/kg, read-out: Vdss

| SMILES | logD [2] | CL free [5] | microsomal CLint at 1 µM [9] [µL/min/mg] | CL free [12] | hepatocyte CLint at 1 µM [13] [µL/min/1e6 cells] | EC50 [17] [nM] | fraction unbound at 18 h, 5 µM [20] | CL free [21] [µL/min] | EC50 [24] [nM] | EC50 [25] [nM] | also measured |
| --- | --- | --- | --- | --- | --- | --- | --- | --- | --- | --- | --- |
| COc1cc(F)c(O[C@H]2CC[C@@](C)(C(=O)O)CC2)cc1C(=O)N[C@@H]1[C@H]2CC[C@H](C2)[C@@H]1C(=O)Nc1ccc(F)c(S(F)(F)(F)(F)F)c1 | 4.9 | 3.39 10^3uL/min/mg | 61 | 2.1 10^3uL/min | 21 |  |  |  |  |  | EC50 [1]: 0.0316 nM; EC50 [3]: 1.51 nM; EC50 [4]: 0.316 nM; EC50 [6]: 0.0251 nM; fraction unbound at 18 h, 5 µM [7]: < 0.0023; EC50 [8]: 3.16 nM; EC50 [10]: 0.02 nM; EC50 [11]: 2.51 nM; EC50 [14]: 0.0251 nM |
| COc1cc(C#N)c(O[C@H]2CC[C@@](C)(C(=O)O)CC2)cc1C(=O)N[C@@H]1[C@H]2CC[C@H](C2)[C@@H]1C(=O)NC12CC(F)(C1)C2 | 2.2 | 4.7 µL/min/mg | 4 | 2.6 µL/min | 1.5 | 10500 | 0.101 | 11 |  |  | clearance [15]: 59 mL/min/kg; half-life [16]: 1.4 h; bioavailability [18]: 17%; Vd [19]: 0.96 L/kg |
| COc1cc(F)c(O[C@H]2CC[C@@](C)(C(=O)O)CC2)cc1C(=O)N[C@@H]1[C@H]2CC[C@H](C2)[C@@H]1C(=O)NCC(C)(C)C | 3 | 20 µL/min/mg | 14 | 4.3 µL/min | 2.7 |  |  |  | 39.8 |  | Papp A→B [22]: 81 ×10⁻⁶ cm/s; efflux ratio [23]: 6.8 |
| COc1cc(F)c(O[C@H]2CC[C@@H](C(=O)O)CC2)cc1C(=O)N[C@@H]1[C@H]2CC[C@H](C2)[C@@H]1C(=O)NCC(C)(C)C | 2.3 | 8.5 µL/min/mg | 6.8 | 3.4 µL/min | 2.2 |  | 0.079 | 133 | 1000 | > 39800 | clearance [26]: 64 mL/min/kg; Vd [27]: 0.6 L/kg; bioavailability [28]: 5.6%; half-life [29]: 1.8 h |
| COc1cc(C#N)c(O[C@H]2CC[C@@](C)(C(=O)O)CC2)cc1C(=O)N[C@@H]1[C@H]2CC[C@H](C2)[C@@H]1C(=O)NCC(C)(C)C | 2.3 | < 4.3 µL/min/mg | < 3 | < 2 µL/min | < 1.3 | 15800 | 0.078 | 15 |  | 1260 | half-life [30]: 2 h; bioavailability [31]: 61%; clearance [32]: 41 mL/min/kg; Vd [33]: 0.55 L/kg |
